Active and inactive are the calls of the source. No cut-off for these calls is given here. Positions of bridges follow the written chain, without caps; N, C: chain ends. Residues, ends and D or L forms follow the SMILES beside them.
Legend:
Pseudomonas aeruginosa = assay: Antimicrobial activity against Pseudomonas aeruginosa CMCC10104 assessed as reduction in microbial growth incubated for 18 hrs by broth microdilution method; assay type: functional
Enterococcus faecium = assay: Antimicrobial activity against Enterococcus faecium 34 assessed as reduction in microbial growth incubated for 18 hrs by broth microdilution method; assay type: functional
Acinetobacter baumannii [1] = assay: Antibiofilm activity against Acinetobacter baumannii ATCC 19606 assessed as inhibition of biofilm formation incubated for 48 hrs by crystal violet staining based analysis; assay type: functional, organism-based
[2] = Acute toxicity in BALB/c mouse assessed as mortality at 10 mg/kg, iv measured for 24 hrs; assay type: organism-based; conditions: in vivo, read-out: Activity
[3] = Acute toxicity in BALB/c mouse assessed as effect on BUN level at 10 mg/kg, iv measured for 24 hrs; assay type: organism-based; conditions: in vivo
Salmonella enteritidis = assay: Antimicrobial activity against Salmonella enterica subsp. enterica serovar Enteritidis ATCC 14028 assessed as reduction in microbial growth incubated for 18 hrs by broth microdilution method; assay type: functional
Staphylococcus aureus [4] = assay: Antipersister-activity against Staphylococcus aureus CMCC 26003 assessed as elimination of persister cells at 50 times MIC preincubated adherent persistent cells with colistin incubation for 24 hrs; assay type: functional
Peritoneal macrophage [5] = assay: Antiinflammatory activity in mouse Peritoneal macrophage cells assessed as inhibition of LPS-induced TNF-alpha production at 20 microg/ml incubated for 6 hrs by ELISA analysis; assay type: functional, cell-based; conditions: dose 20.0 µg/ml
Acinetobacter baumannii [6] = assay: In vivo antibacterial activity against Acinetobacter baumannii ATCC19606 infected in BALB/c mouse assessed as survival at 15 mg/kg, ip administered for 12 hrs and measured after 3 hrs; assay type: functional; conditions: time 15 hrs
Acinetobacter baumannii [7] = assay: In vivo antibacterial activity against Acinetobacter baumannii ATCC19606 infected in BALB/c mouse assessed as reduction in bacterial load in kidney at 15 mg/kg, ip measured after 12 hrs; assay type: functional, organism-based
[8] = Hemolytic activity at human Erythrocyte assessed as hemolysis at 100 microg/ml; assay type: toxicity, cell-based; conditions: erythrocytes, at 100 µg/mL, read-out: Activity
Acinetobacter baumannii [9] = assay: In vivo antibacterial activity against Acinetobacter baumannii ATCC19606 infected in BALB/c mouse assessed as reduction in bacterial load in lung at 15 mg/kg, ip measured after 12 hrs; assay type: functional, organism-based
Acinetobacter baumannii [10] = assay: Antibiofilm activity against Acinetobacter baumannii ATCC 19606 assessed as biofilm eradication incubated for 24 hrs by crystal violet staining based analysis; assay type: functional, organism-based
Acinetobacter baumannii [11] = assay: Antimicrobial activity against Acinetobacter baumannii ATCC19606 assessed as reduction in microbial growth incubated for 18 hrs by broth microdilution method; assay type: functional
Cell membrane [12] = assay: Disruption of cell membrane integrity in Staphylococcus aureus CMCC 26003 assessed as cell membrane damage at 5 times MIC measured after 30 mins by scanning electron microscopic analysis; assay type: subcellular
Escherichia coli [13] = assay: Antibacterial activity against Escherichia coli ATCC 25922 at 1 times MIC in presence of exogenous DNA; assay type: functional, organism-based
[14] = Acute toxicity in BALB/c mouse assessed as effect on ALT level at 10 mg/kg, iv measured for 24 hrs; assay type: organism-based; conditions: in vivo
Staphylococcus aureus [15] = assay: Antimicrobial activity against Staphylococcus aureus 08032706 assessed as reduction in microbial growth incubated for 18 hrs by broth microdilution method; assay type: functional
Staphylococcus aureus [16] = assay: Antimicrobial activity against Staphylococcus aureus CMCC 26003 assessed as reduction in microbial growth incubated for 18 hrs by broth microdilution method; assay type: functional
Acinetobacter baumannii [17] = assay: In vivo antibacterial activity against Acinetobacter baumannii ATCC19606 infected in BALB/c mouse assessed as reduction in bacterial load in liver at 15 mg/kg, ip measured after 3 hrs; assay type: functional, organism-based
Clostridium perfringens = assay: Antimicrobial activity against Clostridium perfringens ATCC 13124 assessed as reduction in microbial growth incubated for 18 hrs by broth microdilution method; assay type: functional
Acinetobacter baumannii [18] = assay: Antibiofilm activity against Acinetobacter baumannii ATCC 19606 assessed as inhibition of biofilm formation at 0.5 times MIC incubated for 48 hrs by crystal violet staining based analysis; assay type: functional
Staphylococcus aureus [19] = assay: Antimicrobial activity against Staphylococcus aureus ATCC 43300 assessed as reduction in microbial growth incubated for 18 hrs by broth microdilution method; assay type: functional
Staphylococcus aureus [20] = assay: Antibiofilm activity against Staphylococcus aureus CMCC 26003 assessed as inhibition of biofilm formation incubated for 48 hrs by crystal violet staining based analysis; assay type: functional, organism-based
Escherichia coli [21] = assay: Antimicrobial activity against Escherichia coli CMCC44102 assessed as reduction in microbial growth incubated for 18 hrs by broth microdilution method; assay type: functional
Acinetobacter baumannii [22] = assay: In vivo antibacterial activity against Acinetobacter baumannii ATCC19606 infected in BALB/c mouse assessed as survival at 15 mg/kg, ip administered for 12 hrs and measured on day 7; assay type: functional; conditions: ATCC19606, 168 h, time 7 day
Staphylococcus aureus [23] = assay: Antibiofilm activity against Staphylococcus aureus CMCC 26003 assessed as biofilm eradication at 0.5 to 2 times MIC incubated for 24 hrs by crystal violet staining based analysis; assay type: functional
Acinetobacter baumannii [24] = assay: Drug resistance, ratio of MIC for Acinetobacter baumannii ATCC1960 after 40 passages to MIC for Acinetobacter baumannii ATCC1960 during first exposure; assay type: functional
Acinetobacter baumannii [25] = assay: In vivo antibacterial activity against Acinetobacter baumannii ATCC19606 infected in BALB/c mouse assessed as reduction in bacterial load in kidney at 15 mg/kg, ip measured after 3 hrs; assay type: functional, organism-based
Acinetobacter baumannii [26] = assay: In vivo antibacterial activity against Acinetobacter baumannii ATCC19606 infected in BALB/c mouse assessed as reduction in bacterial load in liver at 15 mg/kg, ip measured after 12 hrs; assay type: functional, organism-based
Acinetobacter baumannii [27] = assay: Antipersister-activity against Acinetobacter baumannii ATCC 19606 assessed as elimination of persister cells at 50 times MIC preincubated adherent persistent cells with colistin incubation for 24 hrs; assay type: functional
Escherichia coli [28] = assay: Antibacterial activity against Escherichia coli ATCC 25922 assessed as increase in intracellular ROS production at 1 times MIC by DCFH-DA staining based assay; assay type: functional, organism-based
Escherichia coli [29] = assay: Antimicrobial activity against Escherichia coli ATCC 25922 assessed as reduction in microbial growth incubated for 18 hrs by broth microdilution method; assay type: functional
Peritoneal macrophage [30] = assay: Antiinflammatory activity in mouse Peritoneal macrophage cells assessed as inhibition of LPS-induced IL-6 production at 20 microg/ml incubated for 6 hrs by ELISA analysis; assay type: functional, cell-based; conditions: dose 20.0 µg/ml
Acinetobacter baumannii [31] = assay: In vivo antibacterial activity against Acinetobacter baumannii ATCC19606 infected in BALB/c mouse assessed as reduction in bacterial load in lung at 15 mg/kg, ip measured after 3 hrs; assay type: functional, organism-based
Acinetobacter baumannii [32] = assay: In vivo antibacterial activity against Acinetobacter baumannii ATCC19606 infected in BALB/c mouse assessed as reduction in bacterial load at 15 mg/kg, ip; assay type: functional, organism-based; conditions: time 3.0 hrs
Staphylococcus aureus [33] = assay: Antimicrobial activity against Staphylococcus aureus CMCC 26003 at 5 times MIC measured at 180 mins; assay type: functional, organism-based
Cell membrane [34] = assay: Disruption of cell membrane integrity in Escherichia coli ATCC 25922 assessed as cell membrane damage at 5 times MIC measured after 30 mins by scanning electron microscopic analysis; assay type: subcellular
Escherichia coli [35] = assay: Drug resistance, ratio of MIC for Escherichia coli ATCC 25922 after 40 passages to MIC for Escherichia coli ATCC 25922 during first exposure; assay type: functional

SMILES | MIC (Pseudomonas aeruginosa) [µg/mL] | MIC (Enterococcus faecium) [µg/mL] | Activity (Acinetobacter baumannii [1]) | mortality at 24 h [2] [%] | Activity [3] | MIC (Salmonella enteritidis) [µg/mL] | Activity (Staphylococcus aureus [4]) [%] | Activity (Peritoneal macrophage [5]) | Activity (Acinetobacter baumannii [6]) [%] | Activity (Acinetobacter baumannii [7]) | hemolysis at 100 microg/ml [8] [%] | Activity (Acinetobacter baumannii [9]) | Activity (Acinetobacter baumannii [10]) | MIC (Acinetobacter baumannii [11]) [µg/mL] | Activity (Cell membrane [12]) | Activity (Escherichia coli [13]) | Activity [14] | MIC (Staphylococcus aureus [15]) [µg/mL] | MIC (Staphylococcus aureus [16]) [µg/mL] | Activity (Acinetobacter baumannii [17]) | other results
CC[C@H](C)[C@H](NC(=O)[C@H](CCCNC(=N)N)NC(=O)[C@H](CO)NC(=O)[C@H](Cc1c[nH]cn1)NC(=O)[C@H](CCCNC(=N)N)NC(=O)[C@H](CC(C)C)NC(=O)[C@@H](NC(=O)[C@H](CCCNC(=N)N)NC(=O)CNC(=O)[C@H](CC(C)C)NC(=O)[C@H](CCC(N)=O)NC(=O)[C@H](CCCCN)NC(=O)[C@H](CCCNC(=N)N)NC(=O)[C@@H](NC(=O)[C@H](CCCCN)NC(=O)[C@H](CCCCN)NC(=O)[C@@H](N)Cc1ccccc1)C(C)C)C(C)C)C(=O)N[C@H](C(=O)N[C@H](C(=O)NCC(=O)NCC(=O)N[C@@H](CCCNC(=N)N)C(=O)N[C@@H](CCSC)C(=O)N[C@@H](CCCNC(=N)N)C(=O)N[C@@H](Cc1ccccc1)C(=O)O)C(C)C)[C@@H](C)O | 4.69 | 18.8 | Active | 0 | Non-toxic | 1.17 | 50 | Active | >60 | Active | < 5 | Active | Active | 4.69 | Active | Active | Non-toxic | 9.38 | 2.34 | Active | MIC (Clostridium perfringens): 2.34 µg/mL; inhibition (INH) (Acinetobacter baumannii [18]): 10%; MIC (Staphylococcus aureus [19]): 75 µg/mL; Activity (Staphylococcus aureus [20]): Active; MIC (Escherichia coli [21]): 2.34 µg/mL; survival at 15 mg/kg (Acinetobacter baumannii [22]): 40%; Activity (Staphylococcus aureus [23]): 20%; Ratio (Acinetobacter baumannii [24]): 1; Activity (Acinetobacter baumannii [25]): Active; Activity (Acinetobacter baumannii [26]): Active; Activity (Acinetobacter baumannii [27]): 60%; Activity (Escherichia coli [28]): Active; MIC (Escherichia coli [29]): 2.34 µg/mL; Activity (Peritoneal macrophage [30]): Active; Activity (Acinetobacter baumannii [31]): Active; Activity (Acinetobacter baumannii [32]): Time-dependent-effect
CC[C@H](C)[C@H](NC(=O)[C@H](CCCNC(=N)N)NC(=O)[C@H](CO)NC(=O)[C@@H]1CSSC[C@H](N)C(=O)N[C@@H](Cc2ccccc2)C(=O)N[C@@H](CCCCN)C(=O)N[C@@H](CCCCN)C(=O)N[C@@H](C(C)C)C(=O)N[C@@H](CCCNC(=N)N)C(=O)N[C@@H](CCCCN)C(=O)N[C@@H](CCC(N)=O)C(=O)N[C@@H](CC(C)C)C(=O)NCC(=O)N[C@@H](CCCNC(=N)N)C(=O)N[C@@H](C(C)C)C(=O)N[C@@H](CC(C)C)C(=O)N[C@@H](CCCNC(=N)N)C(=O)N[C@@H](Cc2c[nH]cn2)C(=O)N1)C(=O)N[C@H](C(=O)N[C@H](C(=O)NCC(=O)NCC(=O)N[C@@H](CCCNC(=N)N)C(=O)N[C@@H](CCSC)C(=O)N[C@@H](CCCNC(=N)N)C(=O)N[C@@H](Cc1ccccc1)C(=O)O)C(C)C)[C@@H](C)O (H-CFKKVRKQLGRVLRHCSRITVGGRMRF-OH; disulfide 1-16) | 9.38 | 9.38 | Active | 0 | Non-toxic | 9.38 | 50 | Active | >60 | Active | < 5 | Active | Active | 18.8 | Active | Active | Non-toxic | 9.38 | 18.8 | Active | Activity (Staphylococcus aureus [33]): inactive; MIC (Clostridium perfringens): 9.38 µg/mL; Activity (Cell membrane [34]): Active; inhibition (INH) (Acinetobacter baumannii [18]): 10%; MIC (Staphylococcus aureus [19]): 18.8 µg/mL; Activity (Staphylococcus aureus [20]): Active; MIC (Escherichia coli [21]): 4.69 µg/mL; survival at 15 mg/kg (Acinetobacter baumannii [22]): 40%; Ratio (Escherichia coli [35]): 1; Activity (Staphylococcus aureus [23]): 20%; Ratio (Acinetobacter baumannii [24]): 1; Activity (Acinetobacter baumannii [25]): Active; Activity (Acinetobacter baumannii [26]): Active; Activity (Acinetobacter baumannii [27]): 60%; Activity (Escherichia coli [28]): Active; MIC (Escherichia coli [29]): 4.69 µg/mL; Activity (Peritoneal macrophage [30]): Active; Activity (Acinetobacter baumannii [31]): Active; Activity (Acinetobacter baumannii [32]): Time-dependent-effect

Reference: ChEMBL document CHEMBL6078680, “Improving the Stability and Anti-Infective Activity of Sea Turtle AMPs Using Multiple Structural Modification Strategies” (J Med Chem, 2024)
